# Source: ChEMBL document CHEMBL1201862, “PubChem BioAssay data set” (2004)
#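 Following 48 hours of exposure in 96-well plates, responses at five concentrations were used to interpolate endpoints linearly. GI50 = concentration required for 50% inhibition of growth.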 Calls of active or inactive are those of the source. No stated cut-off is given here; in the data, active = GI50 up to about 1.1 µM and inactive = higher.
# How the values were obtained:
# Test in all cases: NCI tumour cell line growth inhibition, 48 h
# [1] = tested on: SW-620
# [2] = tested on: OVCAR-4
# [3] = tested on: 786-0
# [4] = tested on: HOP-62
# [5] = tested on: SK-MEL-2
# [6] = tested on: HCT-15
# [7] = tested on: TK-10
# [8] = tested on: SNB-19
# [9] = tested on: MDA-MB-435
# [10] = tested on: SF-295
# [11] = tested on: Malme-3M
# [12] = tested on: KM12
# [13] = tested on: SNB-75
# [14] = tested on: A549
# [15] = tested on: ACHN
# [16] = tested on: IGROV-1
# [17] = tested on: MDA-N
# [18] = tested on: COLO 205
# [19] = tested on: PC-3
# [20] = tested on: MDA-MB-231
# [21] = tested on: UO-31
# [22] = tested on: NCI-H23
# [23] = tested on: DU-145
# [24] = tested on: HCC 2998
# [25] = tested on: BT-549
# [26] = tested on: CAKI-1
# [27] = tested on: CCRF-CEM
# [28] = tested on: HL-60
# [29] = tested on: NCI-H226
# [30] = tested on: SR
# [31] = tested on: UACC-257
# [32] = tested on: A498
# [33] = tested on: MOLT-4
# [34] = tested on: NCI-H460
# [35] = tested on: SK-MEL-28
# [36] = tested on: RPMI-8226
# [37] = tested on: T47D
# [38] = tested on: Hs-578T
# [39] = tested on: OVCAR-5
# [40] = tested on: M14
# [41] = tested on: UACC-62
# [42] = tested on: OVCAR-8
# [43] = tested on: HOP-92
# [44] = tested on: RXF 393
# [45] = tested on: HT-29
# [46] = tested on: SK-MEL-5
# [47] = tested on: HCT-116
# [48] = tested on: SN12C
# [49] = tested on: SF-539
# [50] = tested on: EKVX
# [51] = tested on: MCF7
# [52] = tested on: U-251
# [53] = tested on: K562
# [54] = tested on: NCI/ADR-RES
# [55] = tested on: NCI-H522
# [56] = tested on: SK-OV-3
# [57] = tested on: LOX IMVI
# [58] = tested on: OVCAR-3
# [59] = tested on: SF-268
smiles,measurement,setting,value
COCn1c(C)c(C)c2c(=O)oc(N(C)C)nc21,GI50,[1],> 100 µM (inactive)
same,GI50,[2],> 100 µM (inactive)
same,GI50,[3],> 100 µM (inactive)
same,GI50,[4],> 100 µM (inactive)
same,GI50,[5],> 100 µM (inactive)
same,GI50,[6],> 100 µM
same,GI50,[7],> 100 µM (inactive)
same,GI50,[8],67 µM (inactive)
same,GI50,[9],> 100 µM (inactive)
same,GI50,[10],> 100 µM (inactive)
same,GI50,[11],> 100 µM (inactive)
same,GI50,[12],> 100 µM (inactive)
same,GI50,[13],> 100 µM (inactive)
same,GI50,[14],> 100 µM (inactive)
same,GI50,[15],> 100 µM (inactive)
same,GI50,[16],> 100 µM (inactive)
same,GI50,[17],> 100 µM (inactive)
same,GI50,[18],> 100 µM (inactive)
same,GI50,[19],> 100 µM (inactive)
same,GI50,[20],> 100 µM (inactive)
same,GI50,[21],9.82 µM (inactive)
same,GI50,[22],> 100 µM (inactive)
same,GI50,[23],> 100 µM (inactive)
same,GI50,[24],> 100 µM (inactive)
same,GI50,[25],> 100 µM (inactive)
same,GI50,[26],13.6 µM (inactive)
same,GI50,[27],> 100 µM (inactive)
same,GI50,[28],> 100 µM (inactive)
same,GI50,[29],> 100 µM (inactive)
same,GI50,[30],> 100 µM (inactive)
same,GI50,[31],> 100 µM (inactive)
same,GI50,[32],39 µM (inactive)
same,GI50,[33],> 100 µM (inactive)
same,GI50,[34],> 100 µM (inactive)
same,GI50,[35],> 100 µM (inactive)
same,GI50,[36],> 100 µM (inactive)
same,GI50,[37],> 100 µM (inactive)
same,GI50,[38],> 100 µM (inactive)
same,GI50,[39],> 100 µM (inactive)
same,GI50,[40],> 100 µM (inactive)
same,GI50,[41],> 100 µM (inactive)
same,GI50,[42],> 100 µM (inactive)
same,GI50,[43],> 100 µM (inactive)
same,GI50,[44],> 100 µM (inactive)
same,GI50,[45],> 100 µM (inactive)
same,GI50,[46],> 100 µM (inactive)
same,GI50,[47],> 100 µM (inactive)
same,GI50,[48],> 100 µM (inactive)
same,GI50,[49],> 100 µM (inactive)
same,GI50,[50],> 100 µM (inactive)
same,GI50,[51],> 100 µM (inactive)
same,GI50,[52],> 100 µM (inactive)
same,GI50,[53],> 100 µM (inactive)
same,GI50,[54],> 100 µM (inactive)
same,GI50,[55],> 100 µM (inactive)
same,GI50,[56],> 100 µM (inactive)
same,GI50,[57],> 100 µM (inactive)
CN(C)c1n2c3cc([N+](=O)[O-])ccc3[n+]3c(N(C)C)n4ccccc4c3c2c2cccc[n+]12.[O-][Cl+3]([O-])([O-])[O-].[O-][Cl+3]([O-])([O-])[O-],GI50,[1],> 100 µM (inactive)
same,GI50,[2],> 100 µM (inactive)
same,GI50,[3],> 100 µM (inactive)
same,GI50,[4],> 100 µM (inactive)
same,GI50,[5],> 100 µM (inactive)
same,GI50,[6],> 100 µM
same,GI50,[7],> 100 µM (inactive)
same,GI50,[8],43.1 µM (inactive)
same,GI50,[9],> 100 µM (inactive)
same,GI50,[10],> 100 µM (inactive)
same,GI50,[11],> 100 µM (inactive)
same,GI50,[12],> 100 µM (inactive)
same,GI50,[13],> 100 µM (inactive)
same,GI50,[58],> 100 µM (inactive)
same,GI50,[14],> 100 µM (inactive)
same,GI50,[15],> 100 µM (inactive)
same,GI50,[16],> 100 µM (inactive)
same,GI50,[17],> 100 µM (inactive)
same,GI50,[18],> 100 µM (inactive)
same,GI50,[19],> 100 µM (inactive)
same,GI50,[20],> 100 µM (inactive)
same,GI50,[21],> 100 µM (inactive)
same,GI50,[22],> 100 µM (inactive)
same,GI50,[23],> 100 µM (inactive)
same,GI50,[24],> 100 µM (inactive)
same,GI50,[25],> 100 µM (inactive)
same,GI50,[26],> 100 µM (inactive)
same,GI50,[27],> 100 µM (inactive)
same,GI50,[28],> 100 µM (inactive)
same,GI50,[29],> 100 µM (inactive)
same,GI50,[30],> 100 µM (inactive)
same,GI50,[31],> 100 µM (inactive)
same,GI50,[32],> 100 µM (inactive)
same,GI50,[33],> 100 µM (inactive)
same,GI50,[34],> 100 µM (inactive)
same,GI50,[35],> 100 µM (inactive)
same,GI50,[36],> 100 µM (inactive)
same,GI50,[37],73.3 µM (inactive)
same,GI50,[38],29.9 µM (inactive)
same,GI50,[39],> 100 µM (inactive)
same,GI50,[40],> 100 µM (inactive)
same,GI50,[41],> 100 µM (inactive)
same,GI50,[42],> 100 µM (inactive)
same,GI50,[43],> 100 µM (inactive)
same,GI50,[44],> 100 µM (inactive)
same,GI50,[45],> 100 µM (inactive)
same,GI50,[46],> 100 µM (inactive)
same,GI50,[47],> 100 µM (inactive)
same,GI50,[48],38.9 µM (inactive)
same,GI50,[50],> 100 µM (inactive)
same,GI50,[51],8.57 µM (inactive)
same,GI50,[52],51.1 µM (inactive)
same,GI50,[53],> 100 µM (inactive)
same,GI50,[54],> 100 µM (inactive)
same,GI50,[55],34.9 µM (inactive)
same,GI50,[56],> 100 µM (inactive)
same,GI50,[59],29.7 µM (inactive)
same,GI50,[57],> 100 µM (inactive)
